Test results taken from the METLIN SMRT retention time set (Domingo-Almenara et al. 2019).

Assay: gradient 5% acetonitrile 3 min, to 50% in 2 min, to 85% in 15 min, held 3 min, 100 µL/min
Conditions: column: Zorbax Extend-C18 2.1 x 50 mm; eluents: water / acetonitrile, 0.1% formic acid
Summary of the method: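 The system's dead and dwell volumes were 40 μL and 900 μL, with a Zorbax Extend-C18 column (2.1 × 50 mm, 1.8 μm) run at 100 μL/min in water and acetonitrile containing 0.1% formic acid each. Pure standards were analyzed in mixtures of ~100 molecules by HPLC–quadrupole time-of-flight mass spectrometry in positive and negative ionization mode. Retention time was assigned from computationally picked, manually inspected adduct peaks.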

In the case of `CCOc1ccc(S(=O)(=O)NCC2CCN(C(=O)c3cccn(C)c3=O)CC2)cc1C`, the RP-LC retention time is reported as 657 s.

`O=C1CCCCC(Cc2ccccc2)(C(=O)NCCc2ccccc2)N1` (stereo unspecified) gave an RP-LC retention time of 806 s.

With `Cc1ccccc1CNC(=O)c1cn2c(n1)CCCC2` the RP-LC retention time was 762 s.

For `Cc1ccc(N2CC(c3nc(-c4ccc5c(c4)ncn5C)no3)CC2=O)cc1C` (stereo unspecified), the RP-LC retention time was 702 s.

In the case of `CN1c2cc(C(=O)N3CCN(c4ccc(F)cc4)CC3)ccc2C(=O)N2CCCCC21` (stereo unspecified), the RP-LC retention time is reported as 840 s.

Compound `CN(CC1(C)CCOCC1)C(=O)c1c(F)cccc1Cl` has an RP-LC retention time of 813 s.

For `COc1ccc(Cl)cc1NC(=O)NCC1(CO)CC1`, the RP-LC retention time was 684 s.

`Cc1ccc(S(=O)(=O)NC(c2nc(-c3ccc(-c4csc(C)n4)cc3)no2)C(C)C)cc1` (stereo unspecified) gave an RP-LC retention time of 1160 s.

For `COc1cccc(C2CC(c3ccc(Cl)cc3)=NC3(CCN(C)CC3)N2)c1O` (stereo unspecified), the RP-LC retention time was 606 s.

With `COCCOC1CCC12CCN(C(=O)c1conc1C)CC2` (stereo unspecified) the RP-LC retention time was 706 s.

`CN1C(=O)c2cc(C(=O)NCCN3CCCCCC3)nn2CC1(C)C(=O)NCc1ccccc1` (stereo unspecified) showed an RP-LC retention time of 608 s.

With `CCN1CCN(CCCNC(=O)C2CCCN(c3nn4c(=O)c5c(nc4s3)CCCC5)C2)CC1` (stereo unspecified) the RP-LC retention time was 554 s.

Work on `COc1cccc(CNC2=NCCNC23CCN(S(=O)(=O)c2c(C)cc(C)cc2C)CC3)c1` yielded an RP-LC retention time of 826 s.

Work on `COc1ccc2nc(CN3CCN(S(=O)(=O)N(C)C)CC3)[nH]c2c1` yielded an RP-LC retention time of 556 s.

`Cn1c(=O)c2c(nc([N+](=O)[O-])n2Cc2ccc(F)cc2)n(C)c1=O` showed an RP-LC retention time of 795 s.

For `Cc1nnc([C@@H]2CC(F)(F)CN2C(=O)COc2ccc(F)cc2)o1`, the RP-LC retention time was 736 s.

For `Cc1ccc(CNC(=O)C2(C)CN(S(C)(=O)=O)CC(=O)N2c2cc(C)ccc2C)cc1` (stereo unspecified), the RP-LC retention time was 898 s.

Compound `CCc1noc(NC(C)=O)c1-c1ccc(C)c(S(=O)(=O)Nc2ccc(C)cc2C)c1` has an RP-LC retention time of 897 s.

With `Cc1c(C(=O)N2CCN(S(C)(=O)=O)CC2)nnn1-c1nc2c(s1)CCCC2` the RP-LC retention time was 798 s.

Work on `Cc1cc(Nc2ccccc2)nc(N2CCN(C(=O)Nc3ccccc3)CC2)n1` yielded an RP-LC retention time of 693 s.

With `O=C(NC1CCCCC1)C1CC(=O)N(c2ccc3c(c2)CCN3C(=O)C2CC2)C1` (stereo unspecified) the RP-LC retention time was 733 s.

`COCCCNC(=O)C1CCC(=O)N(c2ccc3c(c2)OCO3)C1c1ccc(OC)cc1` (stereo unspecified) gave an RP-LC retention time of 644 s.

Work on `COc1cccc(-c2nnc(NC(=O)c3ccccc3Br)o2)c1` yielded an RP-LC retention time of 734 s.

For `COc1ccc(OC)c(CNC(=O)C2CCCN(c3ncnc4c3nc3n4CCCCC3)C2)c1` (stereo unspecified), the RP-LC retention time was 746 s.

For `Cc1[nH]c(C)c(S(=O)(=O)N2CCC(C(=O)NC3CCCCC3)CC2)c1C(=O)N1CCCC1`, the RP-LC retention time was 676 s.

`COc1ccc(NC(=O)c2cnc(N3CCN(c4ccc(OC)cc4)CC3)nc2N)cc1` gave an RP-LC retention time of 731 s.

In the case of `Cc1cc(C(F)(F)F)nn1CC(=O)N1CCc2nn(C)c(=O)n2CC1`, the RP-LC retention time is reported as 659 s.

Compound `Cc1ccc(NC(=O)N2CCCC2c2nc(-c3ccccc3)no2)c(Cl)c1` (stereo unspecified) has an RP-LC retention time of 1100 s.

`Cc1c(CNCc2cccnc2)c(C(=O)O)c(C)n1Cc1cccc(F)c1` showed an RP-LC retention time of 618 s.

With `Cc1nn(-c2nc(CC(=O)Nc3nc(-c4ccccc4)cs3)cs2)c(C)c1Cc1ccccc1` the RP-LC retention time was 1380 s.

Work on `CC(C)Cc1ccc(C(C)C(=O)N2CC(=O)Nc3ccccc32)cc1` (stereo unspecified) yielded an RP-LC retention time of 968 s.

`O=C(Cc1nnc2c(-c3nc(C4CC4)no3)cccn12)N1CCCCCC1` gave an RP-LC retention time of 674 s.

For `COCCC(=O)NCCC1CCN(C(=O)Nc2cc(F)ccc2F)CC1`, the RP-LC retention time was 675 s.

For `O=C(C1CCC1)N1CCc2sc(S(=O)(=O)NCc3ccc4c(c3)OCO4)cc2C1`, the RP-LC retention time was 836 s.

Work on `Cc1cc(C)n(-c2cc(SCC(=O)NCc3ccco3)ncn2)n1` yielded an RP-LC retention time of 779 s.

In the case of `CCOC(=O)Cc1nc(-c2cncc(Br)c2)n[nH]1`, the RP-LC retention time is reported as 673 s.

In the case of `Cc1ccc(OCC(=O)Nc2cnn(C)c(=O)c2N2CCCCC2)cc1`, the RP-LC retention time is reported as 1070 s.

`CCOC(=O)Cn1c(=O)c2c(nc3n2CC(C)CN3c2cc(C)cc(C)c2)n(C)c1=O` (stereo unspecified) gave an RP-LC retention time of 1050 s.

`CCc1ccccc1NC(=O)Cn1c(C)nc2onc(C)c2c1=O` gave an RP-LC retention time of 845 s.

`COc1ccccc1-c1noc(Cn2ncn3nc(-c4cc(C)ccc4C)cc3c2=O)n1` showed an RP-LC retention time of 1100 s.

In the case of `CCn1cc(-c2nc(C(=O)Nc3ccccc3OC)cs2)c2cccnc21`, the RP-LC retention time is reported as 1180 s.

For `O=C(Nc1nnc(SCc2ccccn2)s1)C1CC(=O)N(c2ccc(F)cc2)C1` (stereo unspecified), the RP-LC retention time was 617 s.

For `CCCNc1cc(N2CCC(CCC(=O)Nc3cc(C)ccc3C)CC2)ncn1`, the RP-LC retention time was 608 s.

For `Cn1nnnc1C1CCCN(C(=O)C2CCC2)C1` (stereo unspecified), the RP-LC retention time was 636 s.

In the case of `Cc1cc(-c2cc(S(=O)(=O)N(CCN(C)C)Cc3cccs3)c(C)s2)n[nH]1`, the RP-LC retention time is reported as 658 s.

With `O=S(=O)(c1ccc2c(c1)OCCO2)N(CCc1cccs1)Cc1cccnc1` the RP-LC retention time was 655 s.

`Cc1ccc(Nc2c(-c3ccccc3O)nc3ncccn23)cc1Cl` gave an RP-LC retention time of 738 s.

Compound `Cc1cccc(N2CCN(C(=O)c3csc(C(=O)NC4CC4)n3)CC2)c1` has an RP-LC retention time of 809 s.

Work on `O=C(Nc1cnc(N2CCCC2)nc1)c1ccc(Br)o1` yielded an RP-LC retention time of 732 s.

`COc1cccc(OCC(=O)Nc2ccc3c(c2)N(C(=O)c2ccco2)CCC3)c1` gave an RP-LC retention time of 877 s.

For `Cc1ccc(S(=O)(=O)c2cnc(N3CCN(c4cc(C)ccc4C)CC3)nc2N)cc1`, the RP-LC retention time was 1310 s.

`CC1(C)O[C@H]2CC(=O)OC[C@]23[C@H]2CC[C@@]4(C)[C@H](c5ccoc5)OC(=O)C5O[C@]54[C@]2(C)C(=O)C[C@@H]13` (stereo partly specified) gave an RP-LC retention time of 918 s.

`Cc1ccc(-n2nc(N3CCN(C(=O)Nc4ccccc4Cl)CC3)ccc2=O)cc1` showed an RP-LC retention time of 833 s.

`Cc1cc(Cl)ccc1OCC(=O)Nc1nc(-c2cccc3ccccc23)cs1` gave an RP-LC retention time of 1310 s.

Compound `Cc1cc(N2CCN(C)CC2)n2nc(CN3CCN(c4ccc(Cl)cc4)CC3)nc2n1` has an RP-LC retention time of 572 s.

`Cc1nn(-c2nc3ccccc3[nH]2)c2c1C(=O)CC(c1ccc(C(C)C)cc1)C2` (stereo unspecified) gave an RP-LC retention time of 1230 s.

`CC1(C)C(=O)N(CC(=O)Nc2ccccc2Cl)c2ccccc21` gave an RP-LC retention time of 912 s.

Compound `CCCCNC(=O)c1nnn2c1COC(c1ccc(F)cc1)C2` (stereo unspecified) has an RP-LC retention time of 929 s.

In the case of `COC(=O)COc1cc(-c2ccc(F)cc2)nc2ccc(NC(=O)Cc3ccccc3)cc12`, the RP-LC retention time is reported as 809 s.

Work on `O=C(Nc1cc(F)ccc1F)Nc1c(-c2ccccc2)nc2ccccn12` yielded an RP-LC retention time of 677 s.

`CCc1nc2cccnc2n1CCN1CCN(C(=O)Nc2ccccc2Cl)CC1` gave an RP-LC retention time of 583 s.

`COc1ccc2nc(C(=O)N3CCCCC3)cc(Nc3ccc(F)c(F)c3)c2c1` showed an RP-LC retention time of 720 s.

Compound `Cc1cc(C)n2c(Nc3cccc(C(F)(F)F)c3)c(-c3ccc(O)cc3)nc2n1` has an RP-LC retention time of 697 s.

Work on `Cc1ccc(Nc2ncnc3nc[nH]c23)cc1Cl` yielded an RP-LC retention time of 682 s.

With `CCNC(=O)N1CCCC1c1nc(-c2ccc(OC)cc2)no1` (stereo unspecified) the RP-LC retention time was 761 s.

`CCOC(=O)C1=NN(c2ccccc2)CC1C(=O)OC` (stereo unspecified) gave an RP-LC retention time of 917 s.
